Test results published in patent publication US20170202932A1, “METHODS FOR INHIBITING NEURON APOPTOSIS AND NECROSIS” (NEWSOUTH INNOVATIONS PTY LIMITED, priority 2012, published 2017).

Tests used:
[1] = molecular target: T1, recombinant mouse TRPC3c channels (Mus musculus, UniProt Q9QZC1, DEL811-838); experiment: Indo-1 ratiometric Ca2+ imaging of CCh-activated Ca2+ entry, HEK293 cells expressing TRPC3c; assay type: cell-based; details: genistein 200 μM pre-incubation, n=5, without genistein 575.6±44.2 nM
T1 construct: expressed in transfected cells; host or cells: HEK293 cells, stably transfected (pIRES-DsRed2 vector)
T1 sequence (Q9QZC1 with tags, fused parts or gaps DEL811-838): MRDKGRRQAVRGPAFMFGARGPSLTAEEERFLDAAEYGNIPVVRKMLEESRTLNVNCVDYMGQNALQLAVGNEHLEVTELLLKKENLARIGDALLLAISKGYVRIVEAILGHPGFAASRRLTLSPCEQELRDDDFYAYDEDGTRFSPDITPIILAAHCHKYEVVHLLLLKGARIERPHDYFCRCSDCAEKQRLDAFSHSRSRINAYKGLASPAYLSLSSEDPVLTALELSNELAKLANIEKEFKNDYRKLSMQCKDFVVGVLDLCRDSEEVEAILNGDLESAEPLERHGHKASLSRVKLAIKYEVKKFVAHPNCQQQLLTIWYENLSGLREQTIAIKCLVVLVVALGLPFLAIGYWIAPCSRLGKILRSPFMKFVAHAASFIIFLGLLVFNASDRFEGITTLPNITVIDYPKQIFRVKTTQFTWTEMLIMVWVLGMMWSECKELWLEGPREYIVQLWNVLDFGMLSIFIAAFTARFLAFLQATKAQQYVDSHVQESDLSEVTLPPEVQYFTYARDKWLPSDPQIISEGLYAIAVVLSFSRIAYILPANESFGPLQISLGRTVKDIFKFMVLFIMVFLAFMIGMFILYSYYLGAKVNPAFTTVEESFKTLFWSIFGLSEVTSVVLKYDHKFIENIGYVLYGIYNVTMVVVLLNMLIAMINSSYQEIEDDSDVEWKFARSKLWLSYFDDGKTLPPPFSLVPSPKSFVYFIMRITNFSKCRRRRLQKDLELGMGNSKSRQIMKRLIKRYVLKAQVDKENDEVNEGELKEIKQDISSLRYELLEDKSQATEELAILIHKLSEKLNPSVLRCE
Experimental: The TRPC3-mediated Ca^2+ entry through two distinct activation pathways was assessed by microfluorometric Ca^2+ imaging: i) Ca^2+ entry via the M3 receptor-PLCB-DAG pathway endogenous to HEK293 cells, using Indo-1 as a Ca^2+ indicator; and ii) Ca^2+ entry via mGluR1-PLCB-DAG through co-expression of the mGluR1, using Fluo-4 as a Ca^2+ indicator.
Cells were grown in DMEM media on 18 mm circular coverslips coated with poly-D-lysine (25 μg/ml) and collagen (25 μg/ml) at 1:1 ratio. The cells were washed with HPSS. The coverslips were then incubated with HPSS and 0.1% pluronic acid, along with either 1 μM Indo-1AM or Fluo-4AM Ca^2+ indicator (Invitrogen, U.S.A.) for an hour prior to the experiment. The cells were then placed into HPSS with 5 μM GdCl3 to block endogenous Ca^2+ entry (added to all superfusions). The M3 AChR-mediated TRPC3 activation was achieved by bath application of carbachol. The mGluR1-mediated TRPC3 activation was achieved by bath application of DHPG.
For Indo-1 experiments, the cells were mounted on a Nikon TMD inverted microscope fitted with an Indo-1 filter set (Nikon Indo-1 filter cube, 485 nm/DM455 nm/405 nm) and illuminated with a mercury lamp. Cells were excited at 350 nm, with dual emission of the field was detected at 410 nm and 480 nm using two photomultiplier tubes, and the ratioed emission was determined in real-time using in-house software. […]

[2] = test system: mouse cerebellar brain slices; experiment: Oxygen glucose deprivation (OGD) in organotypic cerebellar brain slices, propidium iodide staining; assay type: cell-based; details: genistein 200 μM
Experimental: TRPC3c-mediated brain injury arising from transient oxygen glucose deprivation (OGD) was evaluated in organotypic cerebellar brain slices using the TRPC channel blocker Genistein. The brain slices (400 μm) were prepared as described in Example 5. Mice ([…] strain, 6-8 weeks old) were anaesthetized with pentobarbital and decapitated. The brain was removed and submerged in ice cold modified artificial cerebral spinal fluid (ACSF) solution containing 4 mM KCl, 5 mM MgCl2, 1 mM CaCl2, 26 mM NaHCO3, 10 mM glucose, 246 mM sucrose equilibrated with 95% CO2, 5% O2. Slices were cut with a VT1200 vibratome (Leica, Germany) and were allowed to recover in culture medium (75% Minimum Essential Medium (MEM), 25% heat-inactivated horse serum, 25 mM HEPES, 1 mM glutamine, 27.7 mM glucose) for at least 1 h in a tissue culture incubator (37° C., 5% CO2 in air). Hurtado de Mendoza et al. (2011) J Vis Exp. (51). (pii):2564).
For OGD-induced neuronal loss, the brain slices were placed in an anaerobic chamber (Coy Laboratory Products, USA; 100% N2) in OGD medium (75% MEM, 25% Hanks Buffered Salt Solution, 1 mM glutamine) Radley et a. (2012). Neurosci Lett. 506 (1):131-5). Controls included slices placed directly into culture medium in a tissue culture incubator (37° C., 5% CO2 in air). Slices were exposed to OGD for 0, 15 and 30 minutes, with or without 200 μM genistein (n=2 for each condition). […]

[3] = molecular target: src tyrosine kinase (Homo sapiens, UniProt P12931); details: cited from earlier work
src tyrosine kinase, sequence (P12931 whole entry): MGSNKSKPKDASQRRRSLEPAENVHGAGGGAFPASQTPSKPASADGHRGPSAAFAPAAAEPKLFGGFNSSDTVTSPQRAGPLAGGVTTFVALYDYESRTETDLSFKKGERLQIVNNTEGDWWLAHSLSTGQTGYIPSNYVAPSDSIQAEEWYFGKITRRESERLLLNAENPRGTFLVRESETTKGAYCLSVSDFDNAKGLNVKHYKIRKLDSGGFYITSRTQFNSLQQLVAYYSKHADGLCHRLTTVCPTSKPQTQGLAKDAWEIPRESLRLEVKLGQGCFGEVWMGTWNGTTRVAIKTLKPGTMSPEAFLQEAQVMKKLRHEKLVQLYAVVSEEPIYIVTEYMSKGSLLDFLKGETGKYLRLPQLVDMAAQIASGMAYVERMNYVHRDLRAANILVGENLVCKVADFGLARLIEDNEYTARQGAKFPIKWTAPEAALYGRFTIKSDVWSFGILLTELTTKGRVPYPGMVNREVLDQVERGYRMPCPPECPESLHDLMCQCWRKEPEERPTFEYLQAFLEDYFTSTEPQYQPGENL

peak [Ca2+] on return of extracellular Ca2+ (CCh-activated Ca2+ entry) [1]: 81.9 ± 19.8 nM
Structure (SMILES): O=c1c(-c2ccc(O)cc2)coc2cc(O)cc(O)c12 [genistein, 4′, 5,7-trihydroxyisoflavone]
propidium iodide fluorescence in granule cell layer and molecular layer after OGD [2]: reduced propidium iodide fluorescence | neuronal loss and oedema in the Purkinje cell layer after OGD ([2]; 15 mins and 30 mins OGD, n=2 slices per condition): provided protection from the neuronal loss and oedema in the PCL | src tyrosine kinase-mediated phosphorylation of TRPC3 [3]: inhibit
